Laboratory results published in patent US6984727B1, “Gene involved in brassinosteroid responses” (National Institute of Agrobiological Science, priority 2000, dated 2006).

System: second leaf of rice
Assay: leaf blade bend response test (brassinosteroid response test)
Type: in vivo
Settings: cut second leaf germinated in the dark, immersed in 1 ng/ml solution for 48 hours
Source text: The present gene was deduced to be a factor involved in the signal transduction system for plant hormones, taking note of the facts that the present gene was expressed in all plant bodies and that pleiotropic influences resulted from destroying this gene, as well as the possibility that the gene might be a factor involved in the signal transduction system. Presuming that the signal transduction system is that for brassinosteroid hormone in view of the resultant upright form, the inventors performed a leaf blade bend response test as a brassinosteroid response test, by using brassinolide, which is one kind of brassinosteroid hormone. The second leaf of rice which was allowed to germinate in the dark was cut off, and immersed in a 1 ng/ml of brassinosteroid solution for 48 hours.

Question: Which “bending of the leaf blades and leaf sheath junctions” value (Tos17-insertion mutant individuals (A0369, NC6148)) does the source give for `CC(C)[C@H](C)[C@@H](O)[C@H](O)[C@@H](C)[C@H]1CC[C@H]2[C@@H]3COC(=O)[C@H]4C[C@H](O)[C@H](O)C[C@]4(C)[C@H]3CC[C@]12C` [brassinolide] here?
Answer: Its value is “showed little bending thereof”.

Question: And the “bending of the leaf blades and leaf sheath junctions” value (wild type individuals (Akitakomachi, Nipponbare))?
Answer: Its value is “showed bending of the leaf blades and leaf sheath junctions”.
